{"source": "paper PMC9785202", "about": "“Changes in Disposition of Ezetimibe and Its Active Metabolites Induced by Impaired Hepatic Function: The Influence of Enzyme and Transporter Activities” (Pharmaceutics, 2022)", "key": {"[1]": {"molecular_target": "T1, MDR1 (Homo sapiens, UniProt P08183)", "T1 construct": "purchased GenoMembrane Co., Ltd. (Yokohama, Japan); host or cells: Sf9 insect cells", "T1 sequence (P08183 whole entry)": "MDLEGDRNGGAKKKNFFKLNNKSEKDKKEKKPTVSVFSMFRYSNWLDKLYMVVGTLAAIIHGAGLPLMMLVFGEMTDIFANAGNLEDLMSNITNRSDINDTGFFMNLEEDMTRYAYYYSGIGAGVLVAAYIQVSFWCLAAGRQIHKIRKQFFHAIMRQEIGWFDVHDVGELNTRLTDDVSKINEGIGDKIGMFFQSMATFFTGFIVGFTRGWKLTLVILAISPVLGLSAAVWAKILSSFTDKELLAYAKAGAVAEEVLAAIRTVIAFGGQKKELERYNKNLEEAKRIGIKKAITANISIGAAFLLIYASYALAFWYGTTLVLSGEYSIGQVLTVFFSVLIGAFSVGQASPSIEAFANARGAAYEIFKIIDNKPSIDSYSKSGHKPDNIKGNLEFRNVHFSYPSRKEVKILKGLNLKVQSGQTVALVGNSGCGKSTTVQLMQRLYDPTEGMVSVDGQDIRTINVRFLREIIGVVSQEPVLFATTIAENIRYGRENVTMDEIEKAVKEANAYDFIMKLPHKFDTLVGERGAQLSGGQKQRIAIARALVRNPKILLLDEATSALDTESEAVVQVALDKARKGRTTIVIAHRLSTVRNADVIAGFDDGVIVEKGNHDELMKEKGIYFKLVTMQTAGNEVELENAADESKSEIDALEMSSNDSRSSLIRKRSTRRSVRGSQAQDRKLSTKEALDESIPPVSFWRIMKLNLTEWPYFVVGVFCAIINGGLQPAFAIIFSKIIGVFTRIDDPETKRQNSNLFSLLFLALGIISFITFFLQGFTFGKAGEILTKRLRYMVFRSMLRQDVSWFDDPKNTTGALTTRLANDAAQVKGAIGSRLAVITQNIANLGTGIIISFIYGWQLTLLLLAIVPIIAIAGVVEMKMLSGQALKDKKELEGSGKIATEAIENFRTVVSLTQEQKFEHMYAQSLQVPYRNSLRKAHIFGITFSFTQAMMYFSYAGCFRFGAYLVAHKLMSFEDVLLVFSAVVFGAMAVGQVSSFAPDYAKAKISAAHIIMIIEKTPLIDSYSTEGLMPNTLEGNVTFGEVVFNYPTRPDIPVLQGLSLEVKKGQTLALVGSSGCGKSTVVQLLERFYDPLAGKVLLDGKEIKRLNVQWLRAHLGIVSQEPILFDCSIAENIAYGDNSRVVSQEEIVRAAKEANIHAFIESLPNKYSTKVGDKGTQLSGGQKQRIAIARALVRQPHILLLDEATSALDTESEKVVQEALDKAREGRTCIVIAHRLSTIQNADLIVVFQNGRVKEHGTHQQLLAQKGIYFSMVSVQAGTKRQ", "assay": "Transport study with MDR1-expressing membrane vesicles", "assay_type": "in vitro ADME", "conditions": "10 μM, 10 min", "protocol": "(§1) Human MDR1-, MRP2-, and MRP3-expressing membrane vesicles isolated from Sf9 insect cells were sourced from GenoMembrane Co., Ltd. (Yokohama, Japan).\n(§2) In transport studies, a modified rapid filtration technique was used according to the manufacturer’s protocol (GenoMembrane Co.). The uptake of test compounds (10 μM EZE or EZE-Ph) into membrane vesicles (100 μg protein/100 μL) was conducted with or without 4 mM ATP in the transport medium (50 μL, pH 7.4), which included 50 mM MOPS-Tris, 70 mM KCl, and 7.5 mM MgCl2. The vesicular transport was terminated after 10 min by adding 200 μL of ice-cold stop buffer containing 40 mM MOPS-Tris and 70 mM KCl. The stopped incubate was quickly transferred to a 96-well glass fiber filter plate (Millipore, MA, USA) and washed five times with ice-cold stop buffer. The EZE and EZE-Ph inside the vesicles were released by adding 200 μL of methanol–water (70:30, v/v) and analyzed by LC-MS/MS. The ATP-dependent transport was evaluated based on the ratio of transport with ATP to that without ATP."}, "[2]": {"test_system": "rat primary hepatocytes", "assay": "Uptake of EZE and EZE-Ph by rat primary hepatocytes", "assay_type": "in vitro ADME", "conditions": "10 μM, 10 min, 37 °C vs 4 °C", "method": "Rat primary hepatocytes were isolated from male SD rats as previously described [34]. Fresh rat hepatocytes (120,000 per well) were cultured in Williams’ E medium (containing 0.1 μM dexamethasone, 5% fetal bovine serum, 1% penicillin G/streptomycin, 1% GlutaMAX-I, and 1% insulin–transferrin–selenium) on collagen I-coated 48-well plates. Rat hepatocytes cultured for 4 h under a carbogen atmosphere were directly used for uptake assays.\nThe hepatocytes were rinsed three times with HBSS (37 °C) and equilibrated in HBSS for 10 min. […] After 10 min of incubation, cells were quickly washed three times with ice-cold HBSS and then lysed by the addition of 300 μL of purified water. The protein content was measured using the BCA protein assay kit. EZE and EZE-Ph were analyzed by LC-MS/MS.\nThe rates of substrate uptake were normalized using the protein contents of cell lysates."}, "[3]": {"assay": "Portal vein and femoral vein plasma pharmacokinetics after oral EZE", "assay_type": "in vivo, rats", "conditions": "oral 10 mg/kg EZE; for AUC(0-t): Sprague-Dawley, rat, po, 10 mg/kg", "protocol": "To investigate changes due to the first-pass metabolism and biliary excretion during liver disease, CCl4-induced rats (n = 5) and control rats (n = 5) were anesthetized and the hepatic portal and femoral veins were cannulated with PE-50 polyethylene tubing. EZE was orally administered to rats at 10 mg/kg. Blood samples were collected simultaneously from the hepatic portal and femoral veins before administration (0 h), at 5, 15, and 30 min, and at 1, 2, 4, 6, 8, 12, 24, and 48 h after administration. Plasma samples were harvested as previously described.\n(§3) A 25.0 μL aliquot of each sample and 25.0 μL of internal standard (50.0 ng/mL EZE-d4) were mixed with 100 μL of acetonitrile. After the samples were vortexed and centrifugated at 2250 g for 15 min, the supernatants were used to measure EZE and its metabolites by LC-MS/MS.\n(§4) WinNonlin version 6.1 (Pharsight Corp., Cary, NC, USA) was used to calculate the pharmacokinetic parameters in a non-compartmental model. Statistical comparisons between the two groups were evaluated using a Student’s two-tailed unpaired t-test or the nonparametric Mann–Whitney test in GraphPad Prism (version 8.0, GraphPad Software Inc, SanDiego, CA, USA). A value of p < 0.05 was considered significant. All data were presented as the mean ± S.D. (n ≥ 3)."}, "[4]": {"molecular_target": "T2, MRP3 (Homo sapiens, UniProt O15438)", "T2 construct": "purchased GenoMembrane Co., Ltd. (Yokohama, Japan); host or cells: Sf9 insect cells", "T2 sequence (O15438 whole entry)": "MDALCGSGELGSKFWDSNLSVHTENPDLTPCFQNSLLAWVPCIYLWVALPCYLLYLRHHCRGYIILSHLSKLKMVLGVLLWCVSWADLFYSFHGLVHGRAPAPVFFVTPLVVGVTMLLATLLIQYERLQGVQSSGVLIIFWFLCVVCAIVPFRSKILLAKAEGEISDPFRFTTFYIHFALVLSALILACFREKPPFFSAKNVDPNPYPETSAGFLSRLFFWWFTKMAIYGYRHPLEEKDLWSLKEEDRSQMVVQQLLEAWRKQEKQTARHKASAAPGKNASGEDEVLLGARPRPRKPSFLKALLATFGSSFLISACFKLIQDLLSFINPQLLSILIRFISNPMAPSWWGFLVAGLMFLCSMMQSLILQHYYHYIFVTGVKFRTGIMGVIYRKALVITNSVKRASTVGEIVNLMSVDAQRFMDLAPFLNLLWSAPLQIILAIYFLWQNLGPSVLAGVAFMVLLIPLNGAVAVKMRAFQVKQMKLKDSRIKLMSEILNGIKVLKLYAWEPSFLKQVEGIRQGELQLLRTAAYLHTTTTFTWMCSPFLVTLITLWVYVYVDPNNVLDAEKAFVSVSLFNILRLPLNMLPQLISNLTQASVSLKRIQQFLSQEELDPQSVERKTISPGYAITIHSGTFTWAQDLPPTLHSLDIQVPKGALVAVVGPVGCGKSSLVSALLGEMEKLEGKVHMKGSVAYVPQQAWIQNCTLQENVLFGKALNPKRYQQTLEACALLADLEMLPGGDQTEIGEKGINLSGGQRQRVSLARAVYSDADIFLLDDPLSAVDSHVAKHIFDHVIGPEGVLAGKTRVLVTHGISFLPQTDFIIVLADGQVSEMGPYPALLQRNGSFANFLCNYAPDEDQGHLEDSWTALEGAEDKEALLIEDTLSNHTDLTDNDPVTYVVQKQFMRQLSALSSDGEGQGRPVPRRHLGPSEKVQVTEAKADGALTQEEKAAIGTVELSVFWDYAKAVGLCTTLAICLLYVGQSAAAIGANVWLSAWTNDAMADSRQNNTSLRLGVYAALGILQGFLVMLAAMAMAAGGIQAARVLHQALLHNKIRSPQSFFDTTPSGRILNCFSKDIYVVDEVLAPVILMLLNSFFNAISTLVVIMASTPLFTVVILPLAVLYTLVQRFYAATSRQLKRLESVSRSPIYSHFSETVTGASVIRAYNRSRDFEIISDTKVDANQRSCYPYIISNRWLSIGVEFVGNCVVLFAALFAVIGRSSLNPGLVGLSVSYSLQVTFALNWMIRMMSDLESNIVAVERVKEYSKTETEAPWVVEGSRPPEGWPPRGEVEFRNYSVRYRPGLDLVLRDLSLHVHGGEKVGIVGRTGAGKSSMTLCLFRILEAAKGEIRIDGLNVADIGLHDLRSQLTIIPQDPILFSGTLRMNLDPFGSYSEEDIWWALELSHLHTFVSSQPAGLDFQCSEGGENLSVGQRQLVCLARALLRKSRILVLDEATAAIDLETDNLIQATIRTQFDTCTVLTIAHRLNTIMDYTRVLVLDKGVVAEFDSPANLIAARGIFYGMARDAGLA", "assay": "Transport study with MRP3-expressing membrane vesicles", "assay_type": "in vitro ADME", "conditions": "10 μM, 10 min", "protocol": "as §1, §2"}, "[5]": {"test_system": "UGTs", "assay": "Incubation of EZE with liver S9 fractions of control and CCl4-induced rats (glucuronidation)", "assay_type": "in vitro ADME, rat", "conditions": "60 min", "protocol": "One portion of the rat liver tissue was homogenized in a 5-fold volume of ice-cold phosphate buffer (including 250 mM sucrose, 10 mM Tris-HCl, and 1 mM EDTA-2Na, pH 7.4) and centrifugated at 9000 g for 20 min. After centrifugation, the supernatant was collected as the S9 fraction and stored at −80 °C.\nTo evaluate the effect of hepatic impairment on the hepatic metabolism of EZE, 0.3 μM, 3 μM, and 30 μM EZE were incubated with rat liver S9 fractions (2 mg of protein/mL) at 37 °C for 60 min in the Tris-HCl-buffered system (100 mM, pH 7.4), consisting of UDPGA (1 mM), MgCl2 (10 mM), and alamethicin (25 μg/mL). To investigate the effect of bile acids on the metabolism of EZE in the liver, 3 μM EZE was incubated with rat or human liver S9 fractions (2 mg of protein/mL) at 37 °C for 60 min in the Tris-HCl-buffered system with or without bile acids at 1, 10, and 100 μM. The total volume of the incubation system was 100 μL. The reactions were terminated by adding 100 μL of ice-cold acetonitrile. Samples were stored at −20 °C until analysis. EZE and EZE-Ph were detected by liquid chromatography with tandem mass spectrometry (LC-MS/MS)."}, "[6]": {"molecular_target": "T3, MRP2 (Homo sapiens, UniProt Q92887)", "T3 construct": "purchased GenoMembrane Co., Ltd. (Yokohama, Japan); host or cells: Sf9 insect cells", "T3 sequence (Q92887 whole entry)": "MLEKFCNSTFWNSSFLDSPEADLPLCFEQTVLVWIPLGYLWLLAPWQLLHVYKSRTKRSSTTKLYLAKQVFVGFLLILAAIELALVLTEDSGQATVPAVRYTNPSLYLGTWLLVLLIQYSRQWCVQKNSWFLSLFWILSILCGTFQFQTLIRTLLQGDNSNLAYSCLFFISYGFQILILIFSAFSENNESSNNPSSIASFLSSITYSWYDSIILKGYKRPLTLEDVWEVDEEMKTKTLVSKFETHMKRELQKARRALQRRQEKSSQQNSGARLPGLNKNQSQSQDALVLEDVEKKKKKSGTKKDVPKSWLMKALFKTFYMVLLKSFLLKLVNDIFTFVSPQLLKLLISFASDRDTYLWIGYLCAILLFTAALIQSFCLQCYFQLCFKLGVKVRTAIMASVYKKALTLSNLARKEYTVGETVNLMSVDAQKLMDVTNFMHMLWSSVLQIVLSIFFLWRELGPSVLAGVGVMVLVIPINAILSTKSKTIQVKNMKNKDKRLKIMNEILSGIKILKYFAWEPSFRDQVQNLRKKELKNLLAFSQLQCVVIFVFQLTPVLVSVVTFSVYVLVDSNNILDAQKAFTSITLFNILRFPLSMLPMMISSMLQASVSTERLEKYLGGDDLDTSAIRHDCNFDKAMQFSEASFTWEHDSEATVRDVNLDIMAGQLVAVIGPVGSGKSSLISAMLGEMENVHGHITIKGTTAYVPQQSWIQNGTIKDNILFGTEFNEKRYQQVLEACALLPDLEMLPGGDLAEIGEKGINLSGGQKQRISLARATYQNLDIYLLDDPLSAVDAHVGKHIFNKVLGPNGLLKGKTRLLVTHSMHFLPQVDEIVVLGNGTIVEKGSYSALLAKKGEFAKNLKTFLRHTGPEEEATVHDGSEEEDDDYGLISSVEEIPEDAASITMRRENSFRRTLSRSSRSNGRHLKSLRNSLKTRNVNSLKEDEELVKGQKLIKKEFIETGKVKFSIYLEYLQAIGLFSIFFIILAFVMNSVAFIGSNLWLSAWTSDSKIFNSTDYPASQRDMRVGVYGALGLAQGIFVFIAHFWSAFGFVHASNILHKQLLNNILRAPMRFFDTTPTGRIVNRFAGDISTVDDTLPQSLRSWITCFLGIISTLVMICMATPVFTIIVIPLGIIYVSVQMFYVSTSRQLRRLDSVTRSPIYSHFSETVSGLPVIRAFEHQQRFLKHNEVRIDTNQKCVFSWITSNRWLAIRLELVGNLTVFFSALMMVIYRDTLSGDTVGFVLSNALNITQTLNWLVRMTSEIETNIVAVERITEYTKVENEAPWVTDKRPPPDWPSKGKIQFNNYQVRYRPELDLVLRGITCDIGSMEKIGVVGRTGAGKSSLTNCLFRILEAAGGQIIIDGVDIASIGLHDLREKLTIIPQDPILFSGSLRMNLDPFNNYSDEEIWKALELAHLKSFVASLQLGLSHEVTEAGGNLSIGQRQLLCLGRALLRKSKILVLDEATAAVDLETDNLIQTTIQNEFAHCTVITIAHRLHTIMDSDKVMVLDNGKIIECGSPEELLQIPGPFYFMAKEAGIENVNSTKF", "assay": "Transport study with MRP2-expressing membrane vesicles", "assay_type": "in vitro ADME", "conditions": "10 μM, 10 min", "protocol": "as §1, §2"}, "[7]": {"assay": "Pharmacokinetics after intravenous or oral administration of 10 mg/kg EZE to control and CCl4-induced rats", "assay_type": "in vivo", "conditions": "for AUC(0-t) / half-life / Cmax at 5 min / Cmax / Tmax: Sprague-Dawley, rat, plasma, 10 mg/kg; for Cmax at 5 min: read-out: Cmax (* plasma concentration at 5 min after intravenous injection)", "protocol": "Animals were fasted for 12 h with free access to water before the experiments. EZE was administered orally (prepared in 0.5% carboxymethylcellulose sodium) or intravenously (dissolved in 10% dimethyl sulfoxide, 10% tween-80, and 80% sterile H2O) to CCl4-induced rats (n = 5) and control rats (n = 5) at 10 mg/kg. Blood samples were collected from the retro-orbital venous plexus before administration (0 h), at 5, 15, and 30 min, and at 1, 2, 4, 6, 8, 12, 24, and 48 h after administration in tubes containing EDTA-2K. Plasma samples were harvested by centrifugation at 11,600 g for 5 min at 4 °C and then stored at −80 °C until further analysis.\nas §3, §4"}, "[8]": {"conditions": "for Autosampler stability (4°C, 24 h), RE / Post-extraction stability (room temperature 3 h), RE / Freeze-thaw stability (−20°C, three cycles), RE / Short-term stability (room temperature 3 h), RE: n = 6; for Freeze-thaw stability (−20°C, three cycles), RE / Short-term stability (room temperature 3 h), RE: rat plasma", "method": "The instrument parameters were as follows: ion spray voltage, −4500 V; source temperature, 550 °C; nebulizer gas, 60 psi; heater gas, 60 psi; and curtain gas, 40 psi. […] Data were acquired and processed with the Analyst 1.6.3 software (Applied Biosystems). The standard curve ranges were 1.00 to 1000 ng/mL for EZE, 3.00 to 3000 ng/mL for EZE-Ph, and 1.00 to 1000 ng/mL for EZE-Hy in plasma.\nSummary of the stability of ezetimibe and its metabolites in rat plasma (n = 6)."}, "[9]": {"conditions": "iv, i.v. 10 mg/kg EZE, CCl4-induced rats"}, "[10]": {"conditions": "iv, i.v. 10 mg/kg EZE, control rats"}, "[11]": {"conditions": "po, p.o. 10 mg/kg EZE, CCl4-induced rats"}, "[12]": {"conditions": "po, p.o. 10 mg/kg EZE, control rats"}, "[13]": {"conditions": "oral administration of 10 mg/kg EZE"}}, "note": "Read-outs that look alike come from different tables or passages of the source.", "data": [{"smiles": "O=C1[C@H](CC[C@H](O)c2ccc(F)cc2)[C@@H](c2ccc(O)cc2)N1c1ccc(F)cc1", "note": "[EZE, 1-(4-fluorophenyl)-3(R)-[3-(4-fluorophenyl)-3(S)-hydroxypropyl]-4(S)-(4-hydroxyphenyl)-2-azetidinone, reference compound]", "values": [{"measurement": "ATP-dependent transport via MDR1 membrane vesicles", "setting": "[1]", "value": "No significant ATP-dependent transport"}, {"measurement": "temperature dependence of uptake into isolated rat hepatocytes", "setting": "[2]", "value": "independent of temperature"}, {"measurement": "AUC(0-t)", "setting": "[3]; femoral vein plasma, CCl4-induced rats, read-out: AUC0–t in femoral vein plasma", "value": 191, "unit": "ng·h/mL"}, {"measurement": "AUC(0-t)", "setting": "[3]; femoral vein plasma, control rats, read-out: AUC0–t in femoral vein plasma", "value": 56.2, "unit": "ng·h/mL"}, {"measurement": "AUC(0-t)", "setting": "[3]; portal vein plasma, CCl4-induced rats, read-out: AUC0–t in portal vein plasma", "value": 352, "unit": "ng·h/mL"}, {"measurement": "AUC(0-t)", "setting": "[3]; portal vein plasma, control rats, read-out: AUC0–t in portal vein plasma", "value": 1850, "unit": "ng·h/mL"}, {"measurement": "AUC0-t in portal vein, decrease in CCl4-induced rats compared with control rats", "setting": "[3]", "value": 81.0, "unit": "%"}, {"measurement": "AUC0–t portal vein plasma vs femoral vein plasma, fold higher", "setting": "[3]; CCl4-induced rats", "value": 1.84, "unit": "fold"}, {"measurement": "AUC0–t portal vein plasma vs femoral vein plasma, fold higher", "setting": "[3]; control rats", "value": 33.0, "unit": "fold"}, {"measurement": "time of second absorption peak", "setting": "[3]; control rats", "value": 9.5, "unit": "h"}, {"measurement": "ATP-dependent transport via MRP3 membrane vesicles", "setting": "[4]", "value": "No significant ATP-dependent transport"}, {"measurement": "increase of residue of EZE in CCl4-induced rats compared with control rats", "setting": "[5]; liver S9, 0.3 μM EZE", "value": 4.15, "unit": "fold"}, {"measurement": "increase of residue of EZE in CCl4-induced rats compared with control rats", "setting": "[5]; liver S9, 3 μM EZE", "value": 5.00, "unit": "fold"}, {"measurement": "increase of residue of EZE in CCl4-induced rats compared with control rats", "setting": "[5]; liver S9, 30 μM EZE", "value": 1.40, "unit": "fold"}, {"measurement": "ATP-dependent transport via MRP2 membrane vesicles", "setting": "[6]", "value": "No significant ATP-dependent transport"}, {"measurement": "AUC(0-t)", "setting": "[7]; [9]", "value": "4610 ± 781", "unit": "ng·h/mL"}, {"measurement": "half-life", "setting": "[7]; [9]", "value": "7.67 ± 3.08", "unit": "h"}, {"measurement": "Cmax at 5 min", "setting": "[7]; [9]", "value": "2950 ± 571", "unit": "ng/mL"}, {"measurement": "AUC(0-t)", "setting": "[7]; [10]", "value": "2180 ± 304", "unit": "ng·h/mL"}, {"measurement": "half-life", "setting": "[7]; [10]", "value": "6.76 ± 3.31", "unit": "h"}, {"measurement": "Cmax at 5 min", "setting": "[7]; [10]", "value": "1560 ± 361", "unit": "ng/mL"}, {"measurement": "AUC(0-t)", "setting": "[7]; [11]", "value": "189 ± 66", "unit": "ng·h/mL"}, {"measurement": "Cmax", "setting": "[7]; [11]", "value": "20.4 ± 8.1", "unit": "ng/mL"}, {"measurement": "Tmax", "setting": "[7]; [11]", "value": "5.2 ± 3.9", "unit": "h"}, {"measurement": "half-life", "setting": "[7]; [11]", "value": "12.3 ± 5.3", "unit": "h"}, {"measurement": "AUC(0-t)", "setting": "[7]; [12]", "value": "17 ± 10", "unit": "ng·h/mL"}, {"measurement": "Cmax", "setting": "[7]; [12]", "value": "2.63 ± 2.68", "unit": "ng/mL"}, {"measurement": "Tmax", "setting": "[7]; [12]", "value": "4.95 ± 4.84", "unit": "h"}, {"measurement": "half-life", "setting": "[7]; [12]", "value": "5.56 ± 3.78", "unit": "h"}, {"measurement": "AUC0–t, fold higher in CCl4-induced rats than in control rats", "setting": "[7]; intravenous injection of 10 mg/kg EZE", "value": 2.1, "unit": "fold"}, {"measurement": "AUC0–t, fold higher in CCl4-induced rats than in control rats", "setting": "[7]; [13]", "value": 11.1, "unit": "fold"}, {"measurement": "share in plasma relative to the main circulating component EZE-Ph", "setting": "[7]; [13]", "value": 0.4, "unit": "%"}, {"measurement": "Autosampler stability (4°C, 24 h), RE", "setting": "[8]; HQC (800/2400/800 ng/ml)", "value": 3.9, "unit": "%"}, {"measurement": "Post-extraction stability (room temperature 3 h), RE", "setting": "[8]; HQC (800/2400/800 ng/ml)", "value": 3.9, "unit": "%"}, {"measurement": "Autosampler stability (4°C, 24 h), RE", "setting": "[8]; LQC (3.00/9.00/3.00 ng/ml)", "value": 0.6, "unit": "%"}, {"measurement": "Post-extraction stability (room temperature 3 h), RE", "setting": "[8]; LQC (3.00/9.00/3.00 ng/ml)", "value": 0.7, "unit": "%"}, {"measurement": "stability in rat plasma under the test conditions", "setting": "[8]; LQC and HQC samples, short-term, post-extraction, auto-sampler, three freeze/thaw cycles", "value": "stable"}, {"measurement": "Freeze-thaw stability (−20°C, three cycles), RE", "setting": "[8]; HQC (800/2400/800 ng/ml)", "value": 1.1, "unit": "%"}, {"measurement": "Short-term stability (room temperature 3 h), RE", "setting": "[8]; HQC (800/2400/800 ng/ml)", "value": -5.6, "unit": "%"}, {"measurement": "Freeze-thaw stability (−20°C, three cycles), RE", "setting": "[8]; LQC (3.00/9.00/3.00 ng/ml)", "value": -1.0, "unit": "%"}, {"measurement": "Short-term stability (room temperature 3 h), RE", "setting": "[8]; LQC (EZE/EZE-Ph/EZE-Hy 3.00/9.00/3.00 ng/ml)", "value": -11.2, "unit": "%"}, {"measurement": "stability in blood", "setting": "[8]; room temperature for 2 h", "value": "stable"}]}]}
